{"source": "patent US9943473B2", "about": "“Zinc lysine halide complex” (Colgate-Palmolive Company, priority 2012, dated 2018)", "key": {"C. minutissimum": {"tested_on": "C. minutissimum", "experiment": "Zone of inhibition test on TSA plates", "assay_type": "cell-based", "protocol": "(§1) A zone of inhibition test is conducted on several materials: zinc oxide and amino acid hydrohalide alone and a mixture formed from zinc oxide and amino acid hydrohalide. The method involves making a lawn of freshly prepared bacterial culture on TSA (trypticase soy agar) plates. Sterile filter paper discs are seeded with 20 μl of test sample (supernatant or mixture). Sample-coated filter paper discs are air dried and applied onto the bacterial lawn on TSA plates. Plates are incubated for 20 hours at 37° C."}, "S. aureus": {"tested_on": "S. aureus", "experiment": "Zone of inhibition test on TSA plates", "assay_type": "cell-based", "protocol": "as §1"}, "[1]": {"experiment": "Hydrolysis reaction: pH and turbidity of diluted ZLC solutions before and after aging", "assay_type": "physicochemical", "details": "for pH after aging / turbidity after aging: aged at 37° C. over 5 hours", "protocol": "A 185 mg/ml solution of ZLC is prepared and diluted several-fold and aged in a 37° C. oven over 5 hours for turbidity studies. […] Turbidity of the solutions is measured using a nephelometer, results being given in nephelometric turbidity units (NTU).\nThe precipitates formed in the 8×, 16× and 32× diluted solutions are collected by centrifugation and identified as crystalline ZnO by PXRD. From the supernatant, a single crystal is grown and shown by X-ray diffraction to be Lysine Monohydrochloride Dihydrate (Lysine.HCl.2H2O)."}, "[2]": {"biological_target": "Bovine Serum Albumin (BSA) (Bos taurus, UniProt P02769)", "sequence (P02769 25-607)": "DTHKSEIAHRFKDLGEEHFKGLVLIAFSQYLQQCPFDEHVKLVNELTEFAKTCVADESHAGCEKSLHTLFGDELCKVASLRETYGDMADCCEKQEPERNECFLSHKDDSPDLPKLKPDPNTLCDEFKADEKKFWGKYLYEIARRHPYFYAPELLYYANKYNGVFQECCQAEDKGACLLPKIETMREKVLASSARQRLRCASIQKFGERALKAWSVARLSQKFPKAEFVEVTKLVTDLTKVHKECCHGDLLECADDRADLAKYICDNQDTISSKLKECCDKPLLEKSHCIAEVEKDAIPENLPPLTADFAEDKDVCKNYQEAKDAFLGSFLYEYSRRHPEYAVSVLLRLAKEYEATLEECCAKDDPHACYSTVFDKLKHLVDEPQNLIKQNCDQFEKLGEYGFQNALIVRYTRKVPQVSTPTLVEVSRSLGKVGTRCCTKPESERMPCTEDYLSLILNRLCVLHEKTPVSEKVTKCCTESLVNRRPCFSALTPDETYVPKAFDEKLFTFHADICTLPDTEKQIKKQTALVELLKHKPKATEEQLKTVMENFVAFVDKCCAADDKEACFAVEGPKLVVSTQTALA", "experiment": "Flocculation of ZLC in the presence of protein (turbidity, pH)", "details": "ZLC about 15 mg/ml, 5 hours at 37° C.", "protocol": "Turbidity and pH of solutions are measured 5 hours after the mixtures were placed in a 37° C. oven, and the results are shown in Table 6."}, "C. xerosis": {"tested_on": "C. xerosis", "experiment": "Zone of inhibition test on TSA plates", "assay_type": "cell-based", "protocol": "as §1"}, "S. epider.": {"tested_on": "S. epider.", "experiment": "Zone of inhibition test on TSA plates", "assay_type": "cell-based", "protocol": "as §1"}, "[3]": {"details": "general description; cited from earlier work"}, "[4]": {"details": "Table 3, sample form not stated"}, "[5]": {"details": "sample 1: DI water, 0% BSA, pH 6.4"}}}
{"smiles": "NCCCC[C@H](N)C(=O)O", "note": "[Lysine 4%, lysine]", "values": [{"measurement": "Zone of Inhibition", "setting": "C. minutissimum; [4]", "result": 0, "unit": "mm"}, {"measurement": "Zone of Inhibition", "setting": "S. aureus; [4]", "result": 0, "unit": "mm"}]}
{"smiles": "N=C(N)NCCC[C@H](N)C(=O)O", "note": "[Arginine 4%, arginine]", "values": [{"measurement": "Zone of Inhibition", "setting": "C. minutissimum; [4]", "result": 0, "unit": "mm"}, {"measurement": "Zone of Inhibition", "setting": "S. aureus; [4]", "result": 0, "unit": "mm"}]}
{"smiles": "NCCCCC(N)C(=O)O.NCCCCC(N)C(=O)O.O.O.[Cl-].[Cl-].[Zn+2]", "note": "(stereo not drawn) [ZLC, [Zn(Lysine)2Cl]^+Cl^−.2H2O]", "values": [{"measurement": "initial turbidity", "setting": "[1]; 5.78 mg/ml", "result": 40.1, "unit": "NTU"}, {"measurement": "pH after aging", "setting": "[1]; 5.78 mg/ml", "result": 8}, {"measurement": "turbidity after aging", "setting": "[1]; 5.78 mg/ml", "result": ">1000", "unit": "NTU"}, {"measurement": "initial turbidity", "setting": "[1]; 11.56 mg/ml", "result": 14.8, "unit": "NTU"}, {"measurement": "pH after aging", "setting": "[1]; 11.56 mg/ml", "result": 7.8}, {"measurement": "turbidity after aging", "setting": "[1]; 11.56 mg/ml", "result": ">1000", "unit": "NTU"}, {"measurement": "initial turbidity", "setting": "[1]; 23.125 mg/ml", "result": 0.7, "unit": "NTU"}, {"measurement": "pH after aging", "setting": "[1]; 23.125 mg/ml", "result": 7.7}, {"measurement": "turbidity after aging", "setting": "[1]; 23.125 mg/ml", "result": 247.4, "unit": "NTU"}, {"measurement": "initial turbidity", "setting": "[1]; 46.25 mg/ml", "result": 1.5, "unit": "NTU"}, {"measurement": "pH after aging", "setting": "[1]; 46.25 mg/ml", "result": 7.4}, {"measurement": "turbidity after aging", "setting": "[1]; 46.25 mg/ml", "result": 2.8, "unit": "NTU"}, {"measurement": "initial turbidity", "setting": "[1]; 92.5 mg/ml", "result": 2.8, "unit": "NTU"}, {"measurement": "pH after aging", "setting": "[1]; 92.5 mg/ml", "result": 7}, {"measurement": "turbidity after aging", "setting": "[1]; 92.5 mg/ml", "result": 2.6, "unit": "NTU"}, {"measurement": "initial turbidity", "setting": "[1]; 185 mg/ml", "result": 4.7, "unit": "NTU"}, {"measurement": "pH after aging", "setting": "[1]; 185 mg/ml", "result": 6.8}, {"measurement": "turbidity after aging", "setting": "[1]; 185 mg/ml", "result": 4.1, "unit": "NTU"}, {"measurement": "stability of the complex upon dilution", "setting": "[1]; 8×, 16× and 32× diluted solutions, precipitate identified as crystalline ZnO by PXRD", "result": "disassociates upon dilution, with consequent precipitation of zinc oxide"}, {"measurement": "Turbidity", "setting": "[2]; [5]", "result": 357, "unit": "NTU"}, {"measurement": "pH", "setting": "[2]; [5]", "result": 8}, {"measurement": "Turbidity", "setting": "[2]; sample 2: 1% BSA, pH 7.2", "result": ">1000", "unit": "NTU"}, {"measurement": "pH", "setting": "[2]; sample 2: 1% BSA, pH 7.2", "result": 8.2}, {"measurement": "Turbidity", "setting": "[2]; sample 3: 1% BSA, pH adjusted to 5.1", "result": ">1000", "unit": "NTU"}]}
{"smiles": "[O]=[Zn]", "note": "[ZnO(4%), zinc oxide]", "values": [{"measurement": "Zone of Inhibition", "setting": "C. xerosis; Dry Sample, Mixture", "result": 0, "unit": "mm"}, {"measurement": "Zone of Inhibition", "setting": "C. xerosis; Dry Sample, Supernatant", "result": 0, "unit": "mm"}, {"measurement": "Zone of Inhibition", "setting": "C. xerosis; Wet Sample, Mixture", "result": 0, "unit": "mm"}, {"measurement": "Zone of Inhibition", "setting": "C. xerosis; Wet Sample, Supernatant", "result": 0, "unit": "mm"}, {"measurement": "Zone of Inhibition", "setting": "S. aureus; Dry Sample, Mixture", "result": 7, "unit": "mm"}, {"measurement": "Zone of Inhibition", "setting": "S. aureus; Dry Sample, Supernatant", "result": 0, "unit": "mm"}, {"measurement": "Zone of Inhibition", "setting": "S. aureus; Wet Sample, Mixture", "result": 7, "unit": "mm"}, {"measurement": "Zone of Inhibition", "setting": "S. aureus; Wet Sample, Supernatant", "result": 0, "unit": "mm"}, {"measurement": "Zone of Inhibition", "setting": "S. epider.; Dry Sample, Mixture", "result": 10, "unit": "mm"}, {"measurement": "Zone of Inhibition", "setting": "S. epider.; Dry Sample, Supernatant", "result": 0, "unit": "mm"}, {"measurement": "Zone of Inhibition", "setting": "S. epider.; Wet Sample, Mixture", "result": 12, "unit": "mm"}, {"measurement": "Zone of Inhibition", "setting": "S. epider.; Wet Sample, Supernatant", "result": 0, "unit": "mm"}, {"measurement": "solubility in water", "setting": "[3]", "result": "insoluble in water"}]}
{"smiles": "Cl.NCCCC[C@H](N)C(=O)O", "note": "[Lysine-HCl 23.2%, lysine hydrochloride]", "values": [{"measurement": "Zone of Inhibition", "setting": "C. minutissimum; [4]", "result": 0, "unit": "mm"}, {"measurement": "Zone of Inhibition", "setting": "C. xerosis; Dry Sample, As is", "result": 0, "unit": "mm"}, {"measurement": "Zone of Inhibition", "setting": "C. xerosis; Wet Sample, As is", "result": 0, "unit": "mm"}, {"measurement": "Zone of Inhibition", "setting": "S. aureus; Dry Sample, As is", "result": 0, "unit": "mm"}, {"measurement": "Zone of Inhibition", "setting": "S. aureus; [4]", "result": 0, "unit": "mm"}, {"measurement": "Zone of Inhibition", "setting": "S. aureus; Wet Sample, As is", "result": 0, "unit": "mm"}, {"measurement": "Zone of Inhibition", "setting": "S. epider.; Dry Sample, As is", "result": 0, "unit": "mm"}, {"measurement": "Zone of Inhibition", "setting": "S. epider.; Wet Sample, As is", "result": 0, "unit": "mm"}]}
{"smiles": "[Cl-].[Cl-].[OH-].[OH-].[OH-].[OH-].[OH-].[OH-].[OH-].[OH-].[Zn+2].[Zn+2].[Zn+2].[Zn+2].[Zn+2]", "note": "[TBZC (4%), zinc chloride hydroxide monohydrate]", "values": [{"measurement": "Zone of Inhibition", "setting": "C. minutissimum; Table 3, Mixture", "result": 7, "unit": "mm"}, {"measurement": "Zone of Inhibition", "setting": "C. minutissimum; Table 3, Supernat", "result": 7, "unit": "mm"}]}
